Source: patent US20260297042A1, “BIARYLAMIDE DERIVATIVES AND THEIR USE AS PKMYT1 INHIBITORS” (CANCER RESEARCH TECHNOLOGY LIMITED, priority 2023, published 2026)

Columns and labels:
[1] = target: T1, Human PKMYT1 (Homo sapiens, UniProt Q99640); assay: PKMYT1 biochemical ADP-Glo enzymatic assay; details: ADP-Glo; 15 nM PKMYT1 kinase domain, 500 µM ATP, 60 minutes at 26° C.; banded
T1 construct: Human PKMYT1 75-362 was cloned as a TEV cleavable 6xHis fusion; 6xHis (TEV cleavable) (cleaved yes); made in house; host or cells: bacterial cells
T1 sequence (Q99640 75-362): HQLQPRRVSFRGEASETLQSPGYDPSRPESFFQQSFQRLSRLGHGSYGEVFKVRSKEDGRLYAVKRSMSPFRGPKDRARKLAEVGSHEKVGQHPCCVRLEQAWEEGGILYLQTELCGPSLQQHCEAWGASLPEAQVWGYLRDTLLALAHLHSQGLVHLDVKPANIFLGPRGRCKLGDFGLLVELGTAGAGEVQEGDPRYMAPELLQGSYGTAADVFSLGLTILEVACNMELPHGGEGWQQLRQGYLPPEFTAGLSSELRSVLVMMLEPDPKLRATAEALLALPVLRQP
Outline: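 PKMYT1 75-362 (His-cleaved, bacterial) 15 nM; ATP 500 µM; HEPES pH 7.5, MgCl2, EGTA, Brij-35, 1% DMSO; 60 min, 26 °C; ADP-Glo Max luminescence; 10-pt 3-fold titration → IC50; replicates within 3-fold, r2 >0.9.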

[2] = target: T2, WEE1 (Homo sapiens, UniProt P30291); assay: Selectivity versus WEE1 assay (ADP-Glo enzymatic assay); assay type: biochemical; details: banded; for IC50: ADP-Glo, 15 nM WEE1, 60 minutes at 26° C.; for PKMYT1 vs. WEE1 selectivity: fold difference in selectivity for PKMYT1 over WEE1, ">N" = at least in this band but could be higher
T2 construct: purchased Thermo Fisher PR7373A
Outline: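 15 nM WEE1, 30 µM ATP, 50 mM HEPES pH 7.5, 10 mM MgCl2, 1 mM EGTA, 0.01% Brij-35, 1% DMSO; 60 min, 26° C; ADP-Glo luminescence; IC50 from curve fit, replicates within 3-fold, r2 >0.9.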

T2 sequence (P30291 whole entry): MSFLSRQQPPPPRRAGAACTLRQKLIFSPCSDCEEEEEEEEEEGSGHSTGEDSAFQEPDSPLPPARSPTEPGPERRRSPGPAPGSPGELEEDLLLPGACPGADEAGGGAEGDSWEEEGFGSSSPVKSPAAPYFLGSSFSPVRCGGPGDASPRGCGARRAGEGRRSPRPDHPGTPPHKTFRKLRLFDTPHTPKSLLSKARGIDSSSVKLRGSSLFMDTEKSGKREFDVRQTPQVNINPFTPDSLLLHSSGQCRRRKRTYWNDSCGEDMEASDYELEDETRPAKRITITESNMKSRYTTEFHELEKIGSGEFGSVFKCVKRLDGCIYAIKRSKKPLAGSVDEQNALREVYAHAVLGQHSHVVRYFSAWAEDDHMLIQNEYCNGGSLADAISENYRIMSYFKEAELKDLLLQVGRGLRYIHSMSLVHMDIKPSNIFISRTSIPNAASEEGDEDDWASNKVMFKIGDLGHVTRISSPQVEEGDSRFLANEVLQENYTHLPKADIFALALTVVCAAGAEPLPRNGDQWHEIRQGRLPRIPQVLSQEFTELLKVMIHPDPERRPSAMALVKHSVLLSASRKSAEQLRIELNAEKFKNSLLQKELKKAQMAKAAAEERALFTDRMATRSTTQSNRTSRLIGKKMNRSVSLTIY

SMILES | IC50 [1] | IC50 [2] | PKMYT1 vs. WEE1 selectivity [2]
Cc1ccc(O)c(C)c1NC(=O)c1cnc(Nc2cc(C3CC3)n(C)n2)s1 [BAA-245, 2-((5-cyclopropyl-1-methyl-1H-pyrazol-3-yl)amino)-N-(3-hydroxy-2,6-dimethylphenyl)thiazole-5-carboxamide] | < 0.05 µM | > 11 µM | Y (1000-5000 fold)
Cc1ccc(O)c(C)c1NC(=O)c1cnc(Nc2nn(C)c3c2CCCC3)s1 [BAA-246, N-(3-hydroxy-2,6-dimethylphenyl)-2-((1-methyl-4,5,6,7-tetrahydro-1H-indazol-3-yl)amino)thiazole-5-carboxamide] | 1 to 11 µM | > 11 µM | W (10-<100 fold)
Cc1ccc(O)c(C)c1NC(=O)c1cnc(Nc2c3cnccc3nn2C)s1 [BAA-248, N-(3-hydroxy-2,6-dimethylphenyl)-2-((2-methyl-2H-pyrazolo[4,3-c]pyridin-3-yl)amino)thiazole-5-carboxamide] | < 0.05 µM | 1 to 11 µM | X (100-<1000 fold)
Cc1ccc(O)c(C)c1NC(=O)c1cnc(Nc2cc(CO)n(C)n2)s1 [BAA-251, N-(3-hydroxy-2,6-dimethylphenyl)-2-((5-(hydroxymethyl)-1-methyl-1H-pyrazol-3-yl)amino)thiazole-5-carboxamide] | < 0.05 µM | 1 to 11 µM | X (100-<1000 fold)
COCc1cc(Nc2ncc(C(=O)Nc3c(C)ccc(O)c3C)s2)nn1C [BAA-252, N-(3-hydroxy-2,6-dimethylphenyl)-2-((5-(methoxymethyl)-1-methyl-1H-pyrazol-3-yl)amino)thiazole-5-carboxamide] | 0.05 to 1 µM | 1 to 11 µM | X (100-<1000 fold)
Cc1ccc(O)c(C)c1NC(=O)c1cnc(Nc2cc(C(C)(C)O)n(C)n2)s1 [BAA-256, N-(3-hydroxy-2,6-dimethylphenyl)-2-((5-(2-hydroxypropan-2-yl)-1-methyl-1H-pyrazol-3-yl)amino)thiazole-5-carboxamide] | < 0.05 µM | 1 to 11 µM | W (10-<100 fold)
Cc1ccc(O)c(C)c1NC(=O)c1cnc(Nc2cccc(C(=O)NC(C(C)C)C(F)(F)F)c2)s1 (stereo not drawn) [BAA-259, N-(3-hydroxy-2,6-dimethylphenyl)-2-((3-((1,1,1-trifluoro-3-methylbutan-2-yl)carbamoyl)phenyl)amino)thiazole-5-carboxamide] | 0.05 to 1 µM | > 11 µM | X (100-<1000 fold)
Cc1ccc(O)c(C)c1NC(=O)c1cnc(Nc2ccnn2CCN)s1 [BAA-260, 2-((1-(2-aminoethyl)-1H-pyrazol-5-yl)amino)-N-(3-hydroxy-2,6-dimethylphenyl)thiazole-5-carboxamide] | 0.05 to 1 µM | > 11 µM | W (10-<100 fold)
Cc1cnc(Nc2ncc(C(=O)Nc3c(C)ccc(O)c3C)s2)s1 [BAA-262, N-(3-hydroxy-2,6-dimethylphenyl)-2-((5-methylthiazol-2-yl)amino)thiazole-5-carboxamide] | < 0.05 µM | > 11 µM | X (100-<1000 fold)
Cc1csc(Nc2ncc(C(=O)Nc3c(C)ccc(O)c3C)s2)n1 [BAA-264, N-(3-hydroxy-2,6-dimethylphenyl)-2-((4-methylthiazol-2-yl)amino)thiazole-5-carboxamide] | < 0.05 µM | > 11 µM | X (100-<1000 fold)
Cc1ccc(O)c(C)c1NC(=O)c1cnc(Nc2nc(C)c(C)s2)s1 [BAA-266, 2-((4,5-dimethylthiazol-2-yl)amino)-N-(3-hydroxy-2,6-dimethylphenyl)thiazole-5-carboxamide] | 0.05 to 1 µM | > 11 µM | X (100-<1000 fold)
Cc1ccc(O)c(C)c1NC(=O)c1cnc(Nc2nn(C)c3cc(Br)ccc23)s1 [BAA-267, 2-((6-bromo-1-methyl-1H-indazol-3-yl)amino)-N-(3-hydroxy-2,6-dimethylphenyl)thiazole-5-carboxamide] | 0.05 to 1 µM | > 11 µM | X (100-<1000 fold)

Further lines, results first:

IC50 [1] | IC50 [2] | PKMYT1 vs. WEE1 selectivity [2] | SMILES
0.05 to 1 µM | > 11 µM | X (100-<1000 fold) | Cc1ccc(O)c(C)c1NC(=O)c1cnc(Nc2cc(C)n(CCC(=O)O)n2)s1 [BAA-241, 3-(3-((5-((3-hydroxy-2,6-dimethylphenyl)carbamoyl)thiazol-2-yl)amino)-5-methyl-1H-pyrazol-1-yl)propanoic acid]
0.05 to 1 µM | > 11 µM | Y (1000-5000 fold) | COc1ccc2cc(Nc3ncc(C(=O)Nc4c(C)ccc(O)c4C)s3)nn2c1 [BAA-242, N-(3-Hydroxy-2,6-dimethylphenyl)-2-((6-methoxypyrazolo[1,5-a]pyridin-2-yl)amino)thiazole-5-carboxamide]
< 0.05 µM | 1 to 11 µM | X (100-<1000 fold) | Cc1ccc(O)c(C)c1NC(=O)c1cnc(Nc2c3ccncc3nn2C)s1 [BAA-244, N-(3-hydroxy-2,6-dimethylphenyl)-2-((2-methyl-2H-pyrazolo[3,4-c]pyridin-3-yl)amino)thiazole-5-carboxamide]
0.05 to 1 µM | > 11 µM | Y (1000-5000 fold) | Cc1ccc(O)c(C)c1NC(=O)c1cnc(Nc2nn(C)c3c2CCC3)s1 [BAA-247, N-(3-hydroxy-2,6-dimethylphenyl)-2-((1-methyl-1,4,5,6-tetrahydrocyclopenta[c]pyrazol-3-yl)amino)thiazole-5-carboxamide]
0.05 to 1 µM | > 11 µM | X (100-<1000 fold) | Cn1ccc(Nc2ncc(C(=O)Nc3c(F)ccc(O)c3F)s2)n1 [BAA-249, N-(2,6-difluoro-3-hydroxyphenyl)-2-((1-methyl-1H-pyrazol-3-yl)amino)thiazole-5-carboxamide]
< 0.05 µM | > 11 µM | X (100-<1000 fold) | Cc1ccc(O)c(C)c1NC(=O)c1cnc(Nc2cc3n(n2)CCN(C)C3=O)s1 [BAA-250, N-(3-hydroxy-2,6-dimethylphenyl)-2-((5-methyl-4-oxo-4,5,6,7-tetrahydropyrazolo[1,5-a]pyrazin-2-yl)amino)thiazole-5-carboxamide]
0.05 to 1 µM | > 11 µM | X (100-<1000 fold) | Cc1ccc(O)c(C)c1NC(=O)c1cnc(Nc2cc(C(=O)OC(C)(C)C)n(C)n2)s1 [BAA-253, tert-butyl 3-((5-((3-hydroxy-2,6-dimethylphenyl)carbamoyl)thiazol-2-yl)amino)-1-methyl-1H-pyrazole-5-carboxylate]
0.05 to 1 µM | > 11 µM | Y (1000-5000 fold) | Cc1ccc(O)c(C)c1NC(=O)c1cnc(Nc2nn(C)cc2C(N)=O)s1 [BAA-254, 2-((4-carbamoyl-1-methyl-1H-pyrazol-3-yl)amino)-N-(3-hydroxy-2,6-dimethylphenyl)thiazole-5-carboxamide]
0.05 to 1 µM | > 11 µM | X (100-<1000 fold) | COCCn1nc(Nc2ncc(C(=O)Nc3c(C)ccc(O)c3C)s2)cc1C [BAA-255, N-(3-hydroxy-2,6-dimethylphenyl)-2-((1-(2-methoxyethyl)-5-methyl-1H-pyrazol-3-yl)amino)thiazole-5-carboxamide]
< 0.05 µM | > 11 µM | Y (1000-5000 fold) | Cc1ccc(O)c(C)c1NC(=O)c1cnc(Nc2nccs2)s1 [BAA-257, N-(3-hydroxy-2,6-dimethylphenyl)-2-(thiazol-2-ylamino)thiazole-5-carboxamide]
1 to 11 µM | > 11 µM | W (10-<100 fold) | Cc1nnc(Nc2ncc(C(=O)Nc3c(C)ccc(O)c3C)s2)o1 [BAA-258, N-(3-hydroxy-2,6-dimethylphenyl)-2-((5-methyl-1,3,4-oxadiazol-2-yl)amino)thiazole-5-carboxamide]
0.05 to 1 µM | > 11 µM | X (100-<1000 fold) | Cc1ccc(O)c(C)c1NC(=O)c1cnc(Nc2cccc(C(=O)N3CC(F)(F)C(F)(F)C3)c2)s1 [BAA-261, N-(3-hydroxy-2,6-dimethylphenyl)-2-((3-(3,3,4,4-tetrafluoropyrrolidine-1-carbonyl)phenyl)amino)thiazole-5-carboxamide]
0.05 to 1 µM | > 11 µM | X (100-<1000 fold) | Cc1nnc(Nc2ncc(C(=O)Nc3c(C)ccc(O)c3C)s2)s1 [BAA-263, N-(3-hydroxy-2,6-dimethylphenyl)-2-((5-methyl-1,3,4-thiadiazol-2-yl)amino)thiazole-5-carboxamide]
< 0.05 µM | > 11 µM | X (100-<1000 fold) | Cc1ccc(O)c(C)c1NC(=O)c1cnc(Nc2ncn(C)n2)s1 [BAA-265, N-(3-hydroxy-2,6-dimethylphenyl)-2-((1-methyl-1H-1,2,4-triazol-3-yl)amino)thiazole-5-carboxamide]
